{"source": "patent US11633382B2", "about": "“Treatment of ER-negative breast cancer with an PDGF-CC inhibitor and anti-estrogen” (Paracrine Therapeutics AB, priority 2015, dated 2023)", "key": {"Human MDA-MB-231 cells": {"tested_on": "Human MDA-MB-231 cells", "assay": "MDA-MB-231 orthotopic xenograft, anti-PDGF-CC and aromatase inhibitor (Example 2)", "assay_type": "in vivo, SCID mice", "details": "A3B6 i.p. twice a week, letrozole 1 mg/dose oral daily; combination p<0.01 vs control, p<0.05 vs A3B6, p<0.001 vs letrozole (FIG. 7)", "text": "All therapeutic administrations were open-label."}, "[1]": {"tested_on": "MMTV-PyMT; Pdgfc^lacz/lacz tumors", "assay": "Orthotopically transplanted MMTV-PyMT; Pdgfc lacz/lacz tumors, tamoxifen trial", "assay_type": "in vivo, FVB/N mice", "details": "Pdgfc-deficient tumors", "procedure": "(§1) 3 weeks old FVB/N (common background strain for both MMTV-PyMT and PDGF-C mice) female mice were anesthetized and maintained under Isolfluorane during the surgical procedure. A 4 mm incision under the nipple of the right abdominal mammary gland created a pocket where a 2×2 mm tumor piece (kept on ice, either from MMTV-PyMT or MMTV-PyMT; PDGF-C tumors) was inserted. Suturing was performed with 6-O Ethilon polyamide filament (Ethicon). Pain-killer and anti-inflammatory Rimadyl (5 mg/kg body weight; Orion Pharma Animal Health) was injected i.p. at the end of the surgical procedure and for the following two days. For the therapeutic trial, Tamoxifen (2 mg/mL) was diluted in corn oil (vehicle) and administered via oral gavage daily.\n(§2) Mouse mammary cell lines MMTV . . . MMTV/PDGF-C−/− . . . (established in our laboratory) were orthotopically injected into the 4th inguinal mammary gland on FVB/N mice. Furthermore, small tumor pieces (2 mm^3) of MMTV-PyMT and MMTV-PDGF-CC−/− tumors were directly orthotopically transplanted under anesthesia. The mice were subjected to Rimadyl immediately after the surgery and the following two days for analgetics. The tumors were measured twice a week and mice were euthanized as described above. […]"}, "[2]": {"tested_on": "ER-negative breast cancer", "details": "ER-negative disease, patients; cited from earlier work"}, "[3]": {"tested_on": "MDA-MB-231 tumors (basal-like subtype)", "assay": "MDA-MB-231 xenograft in SCID mice, tumor growth and angiogenesis (Example 1)", "assay_type": "in vivo", "details": "tamoxifen oral gavage daily with control antibody or A3B6 (FIG. 6c-d)", "procedure": "2×10^6 Human MDA-MB-231 cells were inoculated subcutaneously in immunodeficient mice. […] When tumors were palpable (longest diameter >3 mm), mice were randomized and treated with Tamoxifen (3 mg/kg) or vehicle (corn oil) via oral gavage daily.\nIn order to investigate whether pharmacological targeting of PDGF-CC as a mono-therapy impacted on breast tumor growth or angiogenesis, we treated SCID mice bearing orthotopically implanted MDA-MB-231 tumors (basal-like subtype) twice-weekly with the PDGF-CC antibody, A3B6 or with control antibody.\nThe clinically most important distinguishing feature of luminal subtype breast tumors is the expression of ERα, which confers sensitivity to hormone therapy, such as tamoxifen. We next set out to investigate whether targeting of PDGF-CC would convey sensitivity to hormone therapy to previously impervious ER-negative breast tumors of basal-like subtype. Non-transgenic mice bearing orthopically transplanted tumors from MMTV-PyMT; Pdgfc^+/+ or MMTV-PyMT; Pdgfc^lacz/lacz mice were treated daily with tamoxifen starting from […]."}, "[4]": {"tested_on": "MMTV-PyMT; Pdgfc+/+ tumors", "assay": "Orthotopically transplanted MMTV-PyMT; Pdgfc+/+ (wt) tumors, tamoxifen trial", "assay_type": "in vivo, FVB/N mice", "details": "tamoxifen daily (FIG. 6a)", "procedure": "as §1, §2"}}, "data": [{"smiles": "N#Cc1ccc(C(c2ccc(C#N)cc2)n2cncn2)cc1", "note": "[letrozole]", "values": [{"measurement": "tumor growth, difference between groups", "setting": "Human MDA-MB-231 cells", "result": "no other differences are statistically significant"}]}, {"smiles": "CCC(=C(c1ccccc1)c1ccc(OCCN(C)C)cc1)c1ccccc1", "note": "[tamoxifen, 2-[4-(1,2-diphenylbut-1-enyl)phenoxy]-N,N-dimethyl-ethanamine]", "values": [{"measurement": "tumor growth", "setting": "[1]; tamoxifen daily (FIG. 6b)", "result": "severely growth-retarded"}, {"measurement": "tumor volume at the end of the trial", "setting": "[1]; tamoxifen daily, untreated tumors had grown", "result": "reduced volume"}, {"measurement": "effect on breast cancer recurrence or mortality", "setting": "[2]", "result": "little or no effect"}, {"measurement": "growth of fully established MDA-MB-231 tumors", "setting": "[3]", "result": "unable to influence the growth"}, {"measurement": "tumor growth rate vs untreated mice", "setting": "[4]", "result": "continued to grow at a similar rate"}]}]}
